The subject of data set [1] is epithelial-only (EO) Caco-2 monolayer constructs. The data set is described as follows: Ussing chamber drug permeability, epithelial-only (EO) constructs. The format is in vitro ADME, human.
Data set [2] concerns full thickness (FT) intestinal constructs (Caco-2 on CCD-18co or HDFn stromal compartment). The data set is described as follows: Ussing chamber drug permeability, full-thickness (FT) intestinal constructs. In kind it is in vitro ADME, human.
For a further data set, the system named is Caco-2 monolayers. Particulars: hydrophilic drugs; in words; ref [14]; cited from earlier work.
The conditions of data set [3]: hydrophilic drugs; in words; ref [14]; cited from earlier work.
In data set [4] the test system is epithelial-only (EO) Caco-2 monolayer constructs. The data set is described as follows: Transepithelial electrical resistance (TEER) of KGF-supplemented EO constructs. The format is cell-based, human. Particulars: with increasing KGF concentration (0.5–25 ng.mL−1).
The test system of another data set is Aminopeptidase. The data set is described as follows: Aminopeptidase activity assay of KGF-supplemented EO constructs. The format is cell-based, human. The following applies: with increasing KGF concentration (0.5–25 ng.mL−1). The procedure:
(§1) For conditioned medium studies, Caco-2 monolayers were established as above, but after 48 h, the medium was replenished with a 1:1 mix of fresh culture medium and conditioned medium obtained from 80% confluent fibroblast cultures (HDFn or CCD-18co). The conditioned medium was centrifuged to remove cellular debris and sterile filtered before addition to EO cultures. Similarly, KGF-supplemented cultures were seeded in standard conditions and supplemented with a range of concentrations (0.5–25 ng·mL^−1) of KGF following the establishment of cultures for 48 h. Both conditioned and KGF-supplemented media were replenished at each media change: every two days.
Aminopeptidase activity was quantified through the catalyzation of the cleavage of L-slsninr-4-nitroanilide hydrochloride into the breakdown product 4-nitranline. This was achieved through the addition of 0.5 mL of prewarmed 1.5 mM L-analine-4-nitiroanilide hydrochloride solution (Sigma-Aldrich, St. Louis, […], USA) to the apical compartment of bioengineered tissue constructs (both EO and FT). The constructs were incubated for 1 h at 37 °C at 100 rpm using an orbital shaker. Following incubation, 100 μL of the cleavage product-containing solution was sampled from each construct and the absorbance was quantified at 405 nm using a BioTek™ ELx800 (Winooski, VT, USA) plate reader. Enzyme activity was expressed as a function of tissue area.

Data set [5] concerns epithelial-only (EO) Caco-2 monolayer constructs. The data set is described as follows: qPCR gene expression in KGF-supplemented EO constructs. The format is cell-based, human. Particulars: with increasing KGF concentration. The procedure:
as §1
EO tissue constructs were lysed in RLT buffer (Qiagen, Manchester, UK) and homogenized through repeated aspiration with a 20-gauge needle. […] The mRNA was suspended in molecular-grade water and stored at −80 °C prior to analysis. mRNA abundance was quantified using a Nanodrop Spectrophotometer […] and 200 ng was reverse-transcribed using the GoScript™ Reverse Transcriptase kit (Promega, Hampshire, UK), as per the manufacturer’s instructions. […] Data were analyzed through normalization to the housekeeping reference genes (GAPDH) using the ΔΔCt method and the fold change was averaged after this normalization.

The test system of the next data set is villin. The data set is described as follows: Immunofluorescence of villin in KGF-supplemented EO constructs. In kind it is cell-based, human. The following applies: with KGF concentration up to 5–25 ng.mL−1. The procedure: as §1
Wax sections were prepared for staining by de-paraffinization in Histo-Clear followed by rehydration from 100% ethanol to PBS. Antigen retrieval was performed in citrate buffer (pH 6, Sigma-Aldrich) at 95 °C for 20 min. Alternatively, EO constructs were prepared through fixation in a 1:1 ice-cold solution of methanol (Sigma-Aldrich) and acetone (Sigma-Aldrich) for 10 min at −20 °C. From this point onwards whole EO constructs and mounted tissue sections were stained in the same manner.
The samples were blocked for 1 h at room temperature in a solution consisting of 10% normal goat serum ([…], Sigma-Aldrich) and 0.1% […] (Sigma-Aldrich) in PBS. […]

Another data set has as its target MDR1 (Homo sapiens, UniProt P08183). The data set is described as follows: MDR1-mediated Rhodamine 123 transport in EO constructs (Ussing chamber). The following applies: EO constructs supplemented with KGF 0.5–25 ng.mL−1, absence of verapamil.
[6] abbreviates: FT constructs on intestinal and dermal fibroblast foundation compared with Caco-2 monolayer EO, 100 μM.

The source of these data is publication PMC11592477, “Bioengineering the Human Intestinal Mucosa and the Importance of Stromal Support for Pharmacological Evaluation In Vitro” (Cells, 2024).

MDR1, sequence (P08183 whole entry): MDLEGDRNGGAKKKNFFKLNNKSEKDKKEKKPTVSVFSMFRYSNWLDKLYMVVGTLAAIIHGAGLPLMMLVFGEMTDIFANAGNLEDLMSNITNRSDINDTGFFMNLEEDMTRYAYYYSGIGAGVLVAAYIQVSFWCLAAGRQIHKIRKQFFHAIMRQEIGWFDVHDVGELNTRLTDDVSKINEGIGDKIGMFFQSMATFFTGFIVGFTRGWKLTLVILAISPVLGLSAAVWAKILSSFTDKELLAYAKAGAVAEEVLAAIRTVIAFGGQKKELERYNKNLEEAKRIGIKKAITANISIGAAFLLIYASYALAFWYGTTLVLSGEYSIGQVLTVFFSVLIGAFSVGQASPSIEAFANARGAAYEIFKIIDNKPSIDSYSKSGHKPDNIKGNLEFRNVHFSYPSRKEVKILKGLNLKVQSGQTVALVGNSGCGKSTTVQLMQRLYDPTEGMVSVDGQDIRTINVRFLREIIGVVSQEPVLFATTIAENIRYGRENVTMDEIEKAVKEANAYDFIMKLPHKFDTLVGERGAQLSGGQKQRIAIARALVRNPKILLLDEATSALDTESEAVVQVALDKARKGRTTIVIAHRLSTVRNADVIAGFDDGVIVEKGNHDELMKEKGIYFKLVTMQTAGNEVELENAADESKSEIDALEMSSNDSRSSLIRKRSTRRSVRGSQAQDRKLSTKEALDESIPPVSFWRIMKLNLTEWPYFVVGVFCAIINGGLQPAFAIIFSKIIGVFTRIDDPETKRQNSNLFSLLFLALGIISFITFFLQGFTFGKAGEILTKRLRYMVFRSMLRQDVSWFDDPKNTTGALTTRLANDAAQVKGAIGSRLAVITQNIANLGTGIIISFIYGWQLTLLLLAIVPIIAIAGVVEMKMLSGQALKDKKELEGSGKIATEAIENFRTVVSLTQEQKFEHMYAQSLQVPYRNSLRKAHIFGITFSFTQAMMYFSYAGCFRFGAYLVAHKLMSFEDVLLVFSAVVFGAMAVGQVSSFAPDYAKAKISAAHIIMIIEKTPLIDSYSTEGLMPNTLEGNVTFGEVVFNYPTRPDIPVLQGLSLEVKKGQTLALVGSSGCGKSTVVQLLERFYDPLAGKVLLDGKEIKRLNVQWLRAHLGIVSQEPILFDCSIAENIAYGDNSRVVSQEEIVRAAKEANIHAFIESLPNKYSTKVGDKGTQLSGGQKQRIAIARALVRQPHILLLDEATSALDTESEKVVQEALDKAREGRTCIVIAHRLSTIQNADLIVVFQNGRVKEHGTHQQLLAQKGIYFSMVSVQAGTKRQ

For `COC(=O)c1ccccc1-c1c2ccc(=N)cc-2oc2cc(N)ccc12` [Rhodamine 123], the “apparent permeability (Papp), basal-apical” value in data set [1] (EO constructs in dermal fibroblast conditioned medium vs control, 5 μM, 120 min) is given as “enhanced”; in data set [2] (FT constructs on intestinal fibroblast foundation compared with dermal fibroblast counterpart, absence of verapamil, 5 μM), “significantly increased”. Moreover, the “apparent permeability (Papp), apical-basal” value in [1] (EO constructs in medium conditioned by intestinal and dermal fibroblasts vs control medium, 5 μM, 120 min) is given as “increased”; in data set [2] (FT constructs on intestinal vs dermal fibroblast foundation, regardless of verapamil, 5 μM), “no significant difference”.

In the case of `CC1(C)S[C@@H]2[C@H](NC(=O)[C@H](N)c3ccc(O)cc3)C(=O)N2[C@H]1C(=O)O` [amoxicillin], the “Caco-2 permeability in vitro” value in the data set on Caco-2 monolayers was “low”. For the same molecule, in [3], the absorption in vivo entry was “high”.

`CC1=C(C(=O)O)N2C(=O)[C@@H](NC(=O)[C@H](N)c3ccc(O)cc3)[C@H]2SC1` [cefadroxil]: the “Caco-2 permeability in vitro” value in the data set with Caco-2 monolayers was “low”. For the same molecule, the absorption in vivo result in [3] is recorded as “high”.

As to `N[C@@H](C(=O)N[C@@H]1C(=O)N2C(C(=O)O)=C(Cl)CC[C@H]12)c1ccccc1` [loracarbef], the “Caco-2 permeability in vitro” value in the data set with Caco-2 monolayers is “low”. Also, the absorption in vivo result in [3] is listed as “high”.

For `CN(Cc1cnc2nc(N)nc(N)c2n1)c1ccc(C(=O)N[C@@H](CCC(=O)O)C(=O)O)cc1` [methotrexate], the “Papp, basal-apical transport (BCRP-mediated)” value is given as “modestly enhanced” in data set [1] (EO constructs in intestinal fibroblast conditioned medium, 10 μM) and “increased to the greatest extent” in data set [2] (FT constructs with dermal fibroblast-based stromal foundation, 10 μM). For the same molecule, the “Papp, apical-basal transport (RFC1 and PCFT)” value in [2] (FT co-culture constructs only, to a greater degree with dermal fibroblasts, 10 μM) is listed as “increased”.

With `CC(C)C[C@H](CN)CC(=O)O` [pregabalin], in the data set on Caco-2 monolayers, the “Caco-2 permeability in vitro” value is on record as “low”. Besides, the absorption in vivo result in data set [3] was “high”.

Regarding `Cc1cn([C@H]2C[C@H](N=[N+]=[N-])[C@@H](CO)O2)c(=O)[nH]c1=O` [zidovudine], in the data set with Caco-2 monolayers, the “Caco-2 permeability in vitro” value is “low”. The absorption in vivo result in data set [3] is “high”.

In the case of Lucifer yellow, in [1] (EO constructs in intestinal fibroblast-conditioned medium vs control, not significant, 100 μM), the “permeability (Papp), basal-apical” value is given as “slight increase”. Further, in [2] (setting [6]), the “permeability (Papp), apical-basal” value is “significantly increased” and the “permeability (Papp), basal-apical” value is given as “significantly increased”.

B1: keratinocyte growth factor (protein, UniProt P21781 32-194, looked up)
Fibroblast growth factor 7: CNDMTPEQMATNVNCSSPERHTRSYDYMEGGDIRVRRLFCRTQWYLRIDKRGKVKGTQEMKNNYNIMEIRTVAVGIVAIKGVESEFYLAMNKEGKLYAKKECNEDCNFKELILENHYNTYASAKWTHNGGEMFVALNQKGIPVRGKKTKKEQKTAHFLPMAIT
notes: keratinocyte growth factor, soluble mediator secreted by fibroblasts, added exogenously to EO constructs
With B1, the TEER result in data set [4] is reported as “decreased”. The aminopeptidase activity entry in the data set with Aminopeptidase is listed as “increased”. Besides, in data set [5], the “occludin gene expression (qPCR)” value is given as “decreased” and the “villin gene expression (qPCR)” value is on record as “increased”. Also, the “immunofluorescent detection of villin” value in the data set on villin is “increases”. Besides, the “effect on basal-apical transport of Rhodamine 123” value in the data set with MDR1 is listed as “increased”.
